Values of other authors, collected in PubChem BioAssay AID1259409 (Chemical Carcinogenesis Research Information System (CCRIS), 2018).

System: rodent chemically induced tumor inhibition, incidence and multiplicity
Assay: CCRIS tumor inhibitor studies

CC1=C(/C=C/C(C)=C/C=C/C(C)=C/C=C/C=C(C)/C=C/C=C(\C)C=O)C(C)(C)CCC1
tumour outcome (control, treated, inhibition, significance) (Carcinogen: BENZO[A]PYRENE, 50-32-8, Dose [Inhibitor]: 0, 4.7 MICROMOLAR/D IN 0.1 ML PEANUT OIL BEGINNING 2 WK PRIOR TO CARCINOGEN TREATMENT AND CONTINUING TO 2 WK POST CARCIN, Route [Inhibitor]: GAVAGE, Species: MOUSE, Strain/Sex: SWISS/FEMALE, Target Tissue: Type of Lesion: FORESTOMACH: TUMOR, Dose [Carcinogen]: 1 MG 2/WK IN 0.1 ML PEANUT OIL FOR 4 WK, Promoter: NONE USED): 20/20 (100%), 5/20 (25%), 75%, p<0.001

CC(C)=CCCC(C)CCO (stereo not drawn)
tumour outcome (control, treated, inhibition, significance) (Carcinogen: AZOXYMETHANE, 25843-45-2, Dose [Inhibitor]: 0, 5 MG/G IN DIET FOR 22 WK BEGINNING 3 D POST LAST CARCINOGEN DOSE (STUDY DURATION: 25 WK), Route [Inhibitor]: ORAL, Species: RAT, Strain/Sex: F344/MALE, Target Tissue: Type of Lesion: DUODENUM: ADENOCARCINOMA, Dose [Carcinogen]: 15 MG/KG BW 2/WK FOR 3 WK, Promoter: NONE USED): 50%, 26%, 48%, not significant | tumour outcome (control, treated, inhibition, significance) (Carcinogen: AZOXYMETHANE, 25843-45-2, Dose [Inhibitor]: 0, 5 MG/G IN DIET FOR 22 WK BEGINNING 3 D POST LAST CARCINOGEN DOSE (STUDY DURATION: 25 WK), Route [Inhibitor]: ORAL, Species: RAT, Strain/Sex: F344/MALE, Target Tissue: Type of Lesion: LARGE BOWEL: ADENOMATOUS POLYP, Dose [Carcinogen]: 15 MG/KG BW 2/WK FOR 3 WK, Promoter: NONE USED): 82%, 69%, 16%, not significant

C#C[C@]1(O)CC[C@H]2[C@@H]3CCc4cc(O)ccc4[C@H]3CC[C@@]21C
tumour outcome (control, treated, inhibition, significance) (Carcinogen: N-METHYL-N-NITROSOUREA, 684-93-5, Dose [Inhibitor]: 0, 0.001% IN DIET BEGINNING POST CARCINOGEN TREATMENT AND CONTINUING FOR 23 WK (STUDY DURATION: 25 WK), Route [Inhibitor]: ORAL, Species: RAT, Strain/Sex: F344/MALE, Target Tissue: Type of Lesion: FORESTOMACH: PAPILLOMA, Dose [Carcinogen]: 50 MG/KG 4/2 WK, Promoter: NONE USED): 8/17 (47%), 4/20 (20%), 57%, not calculated | tumour outcome (control, treated, inhibition, significance) (Carcinogen: N-METHYL-N-NITROSOUREA, 684-93-5, Dose [Inhibitor]: 0, 0.001% IN DIET BEGINNING POST CARCINOGEN TREATMENT AND CONTINUING FOR 23 WK (STUDY DURATION: 25 WK), Route [Inhibitor]: ORAL, Species: RAT, Strain/Sex: F344/MALE, Target Tissue: Type of Lesion: FORESTOMACH: SQUAMOUS CELL CARCINOMA, Dose [Carcinogen]: 50 MG/KG 4/2 WK, Promoter: NONE USED): 2/17 (12%), 2/20 (10%), 17%, not calculated | tumour outcome (control, treated, inhibition, significance) (Carcinogen: N-METHYL-N-NITROSOUREA, 684-93-5, Dose [Inhibitor]: 0, 0.001% IN DIET BEGINNING POST CARCINOGEN TREATMENT AND CONTINUING FOR 23 WK (STUDY DURATION: 25 WK), Route [Inhibitor]: ORAL, Species: RAT, Strain/Sex: F344/MALE, Target Tissue: Type of Lesion: HEMATOPOIETIC SYSTEM: LYMPHOMA OR LEUKEMIA, Dose [Carcinogen]: 50 MG/KG 4/2 WK, Promoter: NONE USED): 3/17 (18%), 0/20 (0%), 100%, not calculated | tumour outcome (control, treated, inhibition, significance) (Carcinogen: N-METHYL-N-NITROSOUREA, 684-93-5, Dose [Inhibitor]: 0, 0.001% IN DIET BEGINNING POST CARCINOGEN TREATMENT AND CONTINUING FOR 23 WK (STUDY DURATION: 25 WK), Route [Inhibitor]: ORAL, Species: RAT, Strain/Sex: F344/MALE, Target Tissue: Type of Lesion: SMALL INTESTINE: ADENOCARCINOMA, Dose [Carcinogen]: 50 MG/KG 4/2 WK, Promoter: NONE USED): 9/17 (53%), 0/20 (0%), 100%, not calculated | tumour outcome (control, treated, inhibition, significance) (Carcinogen: N-METHYL-N-NITROSOUREA, 684-93-5, Dose [Inhibitor]: 0, 0.001% IN DIET BEGINNING POST CARCINOGEN TREATMENT AND CONTINUING FOR 23 WK (STUDY DURATION: 25 WK), Route [Inhibitor]: ORAL, Species: RAT, Strain/Sex: F344/MALE, Target Tissue: Type of Lesion: SMALL INTESTINE: ADENOMA, Dose [Carcinogen]: 50 MG/KG 4/2 WK, Promoter: NONE USED): 10/17 (59%), 7/20 (35%), 41%, not calculated | tumour outcome (control, treated, inhibition, significance) (Carcinogen: N-METHYL-N-NITROSOUREA, 684-93-5, Dose [Inhibitor]: 0, 0.001% IN DIET BEGINNING POST CARCINOGEN TREATMENT AND CONTINUING FOR 23 WK (STUDY DURATION: 25 WK), Route [Inhibitor]: ORAL, Species: RAT, Strain/Sex: F344/MALE, Target Tissue: Type of Lesion: THYROID: ADENOCARCINOMA, Dose [Carcinogen]: 50 MG/KG 4/2 WK, Promoter: NONE USED): 1/17 (6%), 0/20 (0%), 100%, not calculated | tumour outcome (control, treated, inhibition, significance) (Carcinogen: N-METHYL-N-NITROSOUREA, 684-93-5, Dose [Inhibitor]: 0, 0.001% IN DIET BEGINNING POST CARCINOGEN TREATMENT AND CONTINUING FOR 23 WK (STUDY DURATION: 25 WK), Route [Inhibitor]: ORAL, Species: RAT, Strain/Sex: F344/MALE, Target Tissue: Type of Lesion: THYROID: ADENOMA, Dose [Carcinogen]: 50 MG/KG 4/2 WK, Promoter: NONE USED): 3/17 (18%), 0/20 (0%), 100%, not calculated | tumour outcome (control, treated, inhibition, significance) (Carcinogen: N-METHYL-N-NITROSOUREA, 684-93-5, Dose [Inhibitor]: 0, 0.001% IN DIET BEGINNING POST CARCINOGEN TREATMENT AND CONTINUING FOR 23 WK (STUDY DURATION: 25 WK), Route [Inhibitor]: ORAL, Species: RAT, Strain/Sex: F344/MALE, Target Tissue: Type of Lesion: TONGUE: PAPILLOMA, Dose [Carcinogen]: 50 MG/KG 4/2 WK, Promoter: NONE USED): 2/17 (12%), 2/20 (10%), 16%, not calculated | tumour outcome (control, treated, inhibition, significance) (Carcinogen: N-METHYL-N-NITROSOUREA, 684-93-5, Dose [Inhibitor]: 0, 0.001% IN DIET BEGINNING POST CARCINOGEN TREATMENT AND CONTINUING FOR 23 WK (STUDY DURATION: 25 WK), Route [Inhibitor]: ORAL, Species: RAT, Strain/Sex: F344/MALE, Target Tissue: Type of Lesion: TONGUE: SQUAMOUS CELL CARCINOMA, Dose [Carcinogen]: 50 MG/KG 4/2 WK, Promoter: NONE USED): 2/17 (12%), 0/20 (0%), 100%, not calculated | tumour outcome (control, treated, inhibition, significance) (Carcinogen: N-METHYL-N-NITROSOUREA, 684-93-5, Dose [Inhibitor]: 0, 0.001% IN DIET BEGINNING POST CARCINOGEN TREATMENT AND CONTINUING FOR 23 WK (STUDY DURATION: 25 WK), Route [Inhibitor]: ORAL, Species: RAT, Strain/Sex: F344/MALE, Target Tissue: Type of Lesion: URINARY BLADDER: PAPILLOMA, Dose [Carcinogen]: 50 MG/KG 4/2 WK, Promoter: NONE USED): 2/17 (18%), 0/20 (0%), 100%, not calculated

CC(C)CCC[C@@H](C)[C@H]1CC[C@H]2[C@@H]3CC=C4C[C@@H](OS(=O)(=O)O)CC[C@]4(C)[C@H]3CC[C@]12C
tumour outcome (control, treated, inhibition, significance) (Carcinogen: 7,12-DIMETHYLBENZ[A]ANTHRACENE, 57-97-6, Dose [Inhibitor]: 0, 400 UG IN 0.2 ML METHANOL:ACETONE (1:4) APPLIED 10 MIN PRIOR TO EACH PROMOTER DOSE FOR 20 WK (STUDY DURATION: 20 WK), Route [Inhibitor]: DERMAL, Species: MOUSE, Strain/Sex: CD-1/FEMALE, Target Tissue: Type of Lesion: SKIN: TUMOR, Dose [Carcinogen]: 100 UG ONCE, Promoter: 12-O-TETRADECANOYLPHORBOL-13-ACETATE, 16561-29-8, MEZEREIN, 34807-41-5, Promoter: 12-O-TETRADECANOYLPHORBOL-13-ACETATE, 16561-29-8, MEZEREIN, 34807-41-5): 90%, 40%, 56%, not calculated

COc1cc(C)c(/C=C/C(C)=C/C=C/C(C)=C/C(=O)O)c(C)c1C
tumour outcome (control, treated, inhibition, significance) (Carcinogen: N-METHYL-N-NITROSOUREA, 684-93-5, Dose [Inhibitor]: 75 MG/KG DIET DAILY FOR 55 WK STARTING 1 WK AFTER LAST CARCINOGEN EXPOSURE (STUDY DURATION: 65 WK), Route [Inhibitor]: ORAL, Species: HAMSTER, Strain/Sex: SYRIAN/MALE, Target Tissue: Type of Lesion: TRACHEA: TUMOR, Dose [Carcinogen]: 1% FOR 7 SECONDS 2/WK FOR 9 WK, Promoter: NONE USED): 30/37 (81%), 27/37 (73%), 10%, not significant | tumour outcome (control, treated, inhibition, significance) (Carcinogen: N-METHYL-N-NITROSOUREA, 684-93-5, Dose [Inhibitor]: 150 MG/KG DIET DAILY FOR 55 WK STARTING 1 WK AFTER LAST CARCINOGEN EXPOSURE (STUDY DURATION: 65 WK), Route [Inhibitor]: ORAL, Species: HAMSTER, Strain/Sex: SYRIAN/MALE, Target Tissue: Type of Lesion: TRACHEA: TUMOR, Dose [Carcinogen]: 1% FOR 7 SECONDS 2/WK FOR 9 WK, Promoter: NONE USED): 30/37 (81%), 24/38 (63%), 22%, not significant | tumour outcome (control, treated, inhibition, significance) (Carcinogen: N-METHYL-N-NITROSOUREA, 684-93-5, Dose [Inhibitor]: 150 MG/KG DIET DAILY FOR 55 WK STARTING 1 WK AFTER LAST CARCINOGEN EXPOSURE (STUDY DURATION: 66 WK), Route [Inhibitor]: ORAL, Species: HAMSTER, Strain/Sex: SYRIAN/MALE, Target Tissue: Type of Lesion: TRACHEA: TUMOR, Dose [Carcinogen]: 1% FOR 7 SECONDS 2/WK FOR 10 WK, Promoter: NONE USED): 32/38 (84%), 34/39 (87%), -4%, not significant | tumour outcome (control, treated, inhibition, significance) (Carcinogen: N-METHYL-N-NITROSOUREA, 684-93-5, Dose [Inhibitor]: 150 MG/KG DIET DAILY FOR 55 WK STARTING 1 WK AFTER LAST CARCINOGEN EXPOSURE (STUDY DURATION: 67.5 WK), Route [Inhibitor]: ORAL, Species: HAMSTER, Strain/Sex: SYRIAN/MALE, Target Tissue: Type of Lesion: TRACHEA: TUMOR, Dose [Carcinogen]: 1% FOR 7 SECONDS 2/WK FOR 11.5 WK, Promoter: NONE USED): 24/40 (60%), 24/40 (60%), 0%, not significant
